Where “and” joins values, the source holds several entries; their conditions need not be identical. Equal values may be shown once.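 Five compound concentrations were applied to cells in 96-well plates for 48 hours; endpoints were derived by simple linear interpolation of the resulting dose-response curve. Here, GI50 denotes the concentration required for 50% inhibition of growth. At the TGI there is no net growth.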
Key:
Experiment in all cases: NCI-60 cell line screen, 48 h
M19-MEL melanoma = tested on: M19-MEL melanoma
NCI-H23 lung = tested on: NCI-H23 lung
NCI-H460 lung = tested on: NCI-H460 lung
OVCAR-8 ovarian = tested on: OVCAR-8 ovarian
HL-60(TB) leukemia = tested on: HL-60(TB) leukemia
DMS 273 small cell lung = tested on: DMS 273 small cell lung
A498 renal = tested on: A498 renal
K-562 leukemia = tested on: K-562 leukemia
RXF 393 renal = tested on: RXF 393 renal
U251 CNS = tested on: U251 CNS

| SMILES | TGI (M19-MEL melanoma) [µM] | TGI (NCI-H23 lung) | TGI (NCI-H460 lung) | TGI (OVCAR-8 ovarian) | TGI (HL-60(TB) leukemia) [µM] | TGI (DMS 273 small cell lung) | TGI (A498 renal) | TGI (K-562 leukemia) | TGI (RXF 393 renal) | TGI (U251 CNS) | GI50 (M19-MEL melanoma) | GI50 (NCI-H23 lung) [µM] | GI50 (NCI-H460 lung) | GI50 (OVCAR-8 ovarian) | GI50 (HL-60(TB) leukemia) | GI50 (DMS 273 small cell lung) [µM] | GI50 (A498 renal) [µM] | GI50 (K-562 leukemia) | GI50 (RXF 393 renal) | GI50 (U251 CNS) |
| --- | --- | --- | --- | --- | --- | --- | --- | --- | --- | --- | --- | --- | --- | --- | --- | --- | --- | --- | --- | --- |
| Cc1cc(C)nc(NS(=O)(=O)c2ccc(NC(=O)COC(=O)c3cccc4c(=O)c5ccccc5[nH]c34)cc2)n1 | 42.1 | > 100 µM | > 100 µM | > 100 µM | 63.9 | > 100 µM | > 100 µM | 98.8 µM | 74.5 µM | 38.4 µM | – | – | – | – | – | – | – | – | – | – |
| Fc1ccc(N=C2C=CC(=Nc3ccc(F)cc3)c3ccccc32)cc1 | > 100 | > 100 µM | > 100 µM | > 100 µM | > 100 | > 100 µM | > 100 µM | > 100 µM | > 100 µM | > 100 µM | – | – | – | – | – | – | – | – | – | – |
| Cc1ccc(NC(=O)CC2SC(=Nc3ccc(Cl)cc3)NC2=O)cc1C (configuration not stated) | 36.1 | 35.6 µM | 18.2 µM | 32.8 µM | 9.12 | 34.3 µM | 43.2 µM | > 58.5 µM | 32 µM | 32.7 µM | – | – | – | – | – | – | – | – | – | – |
| COc1cc(CC(=O)O)c([N+](=O)[O-])cc1OC | > 100 | > 100 µM | > 100 µM | > 100 µM | > 100 | > 100 µM | > 100 µM | > 100 µM | > 100 µM | > 100 µM | – | – | – | – | – | – | – | – | – | – |
| O=C(CC1(O)C(=O)Nc2ccccc21)c1ccccc1O (configuration not stated) | > 100 | > 100 µM | > 100 µM | > 100 µM | > 100 | > 100 µM | > 100 µM | > 100 µM | > 100 µM | – | – | – | – | – | – | – | – | – | – | – |
| Cc1cc(C)c(/C=N/NS(=O)(=O)c2ccccc2)c(C)c1 | > 100 | > 100 µM | > 100 µM | > 100 µM | > 100 | > 100 µM | > 100 µM | > 100 µM | > 100 µM | > 100 µM | – | – | – | – | – | – | – | – | – | – |
| CC(=O)Nc1ccc(C2=N/C(=C\c3ccc(Cl)cc3)C(=O)O2)cc1 | 57.5 | > 100 µM | > 100 µM | > 100 µM | 85.8 | > 100 µM | > 100 µM | 51.8 µM | > 100 µM | > 100 µM | – | – | – | – | – | – | – | – | – | – |
| [CH3][Hg]/[N]=C(/N)NC#N | 25.2 | 24.5 µM | 88.7 µM | 16.1 µM | > 100 | 27.5 µM | 31.7 µM | > 100 µM | 5.13 µM | 56 µM | 12.1 µM | 10.2 | 25 µM | 3.63 µM | 2.76 µM | 13.5 | 17.7 | 1.69 µM | 1.4 µM | 23.6 µM |
| COc1ccc2nc3ccccc3c(NCCN(CCCl)CCCl)c2c1 | 3.2 | – | – | 2.9 µM | 1.1 | – | 5.73 µM | 4.92 µM | – | 2.31 µM | – | – | – | – | – | – | – | – | – | – |
| CCOC(=O)C(=O)C(C#N)c1ccc(Cl)cc1 (configuration not stated) | > 100 | > 100 µM | > 100 µM | > 100 µM | > 100 | > 100 µM | > 100 µM | > 100 µM | > 100 µM | > 100 µM | – | – | – | – | – | – | – | – | – | – |
| O=C(Cc1nc2ccccc2o1)C(=O)Nc1ccc(Cl)cc1Cl | > 100 | > 100 µM | > 100 µM | > 100 µM | – | > 100 µM | > 100 µM | > 100 µM | > 100 µM | > 100 µM | – | – | – | – | – | – | – | – | – | – |
| COC(=O)C1=CC(=O)[C@@H]2CCCC[C@H]12 | > 100 | – | > 100 µM | > 100 µM | > 100 | > 100 µM | – | > 100 µM | > 100 µM | > 100 µM | – | – | – | – | – | – | – | – | – | – |
| N#CCCN(c1ccc(C=O)cc1)S(=O)(=O)c1ccccc1 | > 100 | – | > 100 µM | > 100 µM | > 100 | > 100 µM | > 100 µM | > 100 µM | – | > 100 µM | – | – | – | – | – | – | – | – | – | – |
| N#Cc1cccc(C2C(=O)c3ccc(C(=O)c4ccc5c(c4)C(=O)N(c4ccc(Oc6ccc(N7C(=O)c8ccc(C(=O)c9ccc%10c(c9)C(=O)N(c9cccc(C#N)c9)C%10=O)cc8C7=O)cc6)cc4)C5=O)cc3C2=O)c1 (configuration not stated) | > 100 | > 100 µM | > 100 µM | > 100 µM | > 100 | > 100 µM | – | > 100 µM | > 100 µM | > 100 µM | – | – | – | – | – | – | – | – | – | – |
| Clc1ccccc1C1SCc2nc3ccccc3n21 (configuration not stated) | > 100 | > 100 µM | > 100 µM | > 100 µM | 42.3 | – | – | > 100 µM | 60.5 µM | 54.8 µM | – | – | – | – | – | – | – | – | – | – |
| CC[As](CC)SCC1OC(OC(C)=O)C(OC(C)=O)C(OC(C)=O)C1OC(C)=O (configuration not stated) | 27.5 | 36.4 µM | 31.3 µM | 31.9 µM | 19.2 | 29.4 µM | 38.9 µM | 14 µM | 9.69 µM | 25.3 µM | – | – | – | – | – | – | – | – | – | – |
| CC1C(O)=C(O)c2ccccc2N1O (configuration not stated) | > 100 | > 100 µM | > 100 µM | > 100 µM | > 100 | > 100 µM | > 100 µM | > 100 µM | > 100 µM | > 100 µM | – | – | – | – | – | – | – | – | – | – |
| Cc1ccccc1-n1c(CCl)nc2ccc(Br)cc2c1=O | 19.9 | 25.3 µM | 28 µM | 27.1 µM | 17 | > 100 µM | 60.8 µM | – | 26.8 µM | 25.9 µM | – | – | – | – | – | – | – | – | – | – |
| CC1[C@@H]2CC=C3[C@H]4CCC5Cc6nc7c(nc6C[C@@]5(C)C4CC(=O)[C@]32CO[C@]12OC(C)(C)CC2O)CC1CC[C@@H]2C3=C[C@H]4O[C@@]5(O[C@@](C)(CO)C[C@@H]5O)C(C)[C@@]4(O)[C@]3(C)[C@@H](O)CC2[C@]1(C)C7 (some centres not stated) | > 3.65 | 0.275 µM and 0.0672 µM | 0.013 µM and 0.116 µM | 0.745 µM and > 3.65 µM | – | 0.000328 µM and 0.000802 µM | 0.0187 µM and 0.0124 µM | 0.0278 µM and 0.0311 µM | 0.000428 µM and 0.00414 µM | 0.129 µM and 0.0461 µM | 0.617 µM and 2.48 µM | 0.00281 | 0.000268 µM and 0.000365 µM | – | 0.000355 µM and 0.000365 µM | 0.000365 | 0.000721 | 0.000615 µM and 0.00111 µM | 0.000365 µM | 0.000183 µM and 0.000365 µM |
| O=C(O)CCC1c2[nH]c3ccccc3c2CCN1Cc1ccccc1 (configuration not stated) | > 100 | > 100 µM | > 100 µM | > 100 µM | > 100 | > 100 µM | > 100 µM | > 100 µM | – | > 100 µM | – | – | – | – | – | – | – | – | – | – |
| O=C(CC(=O)c1cccc([N+](=O)[O-])c1)C(=O)Nc1ccccc1 | > 100 | > 100 µM | > 100 µM | > 100 µM | > 100 | > 100 µM | > 100 µM | > 100 µM | > 100 µM | > 100 µM | – | – | – | – | – | – | – | – | – | – |
| Cc1cc(Cl)cc2c1NC(=O)C2(O)C(C(=O)c1ccccc1)c1ccccc1 (configuration not stated) | 10 | > 100 µM | > 100 µM | > 100 µM | 52.1 | > 100 µM | 65.7 µM | > 100 µM | 86.1 µM and 31.7 µM | > 100 µM | – | – | > 100 µM and 36.9 µM | > 100 µM and 32.5 µM | – | – | – | – | 38 µM and 16.2 µM | > 100 µM and 31.1 µM |

Source: PubChem BioAssay (NCI)
